From patent US20080138288A1, “COMBINATIONS FOR TREATMENT OF NEOVASCULATURE” (Washington University, priority 2006, published 2008)

System: aortic vasa vasorum neovasculature
Assay: MRI signal enhancement of aortic vasa vasorum neovasculature in cholesterol-fed rabbits (Example 1, FIG. 1)
Format: in vivo
Details: weeks 2 to 8; atorvastatin in high-cholesterol chow, 44 mg/kg feed
Procedure: Cholesterol-fed rabbits received αvβ3-targeted paramagnetic nanoparticles (NP) with (n=9) or without (n=9) fumagillin (30 μg/kg body weight) at weeks 0 and 4. A portion of the animals (n=4 per group) was treated with atorvastatin included in the high-cholesterol chow (44 mg/kg feed). Assessment of antiangiogenic response was evaluated at weeks 2, 4, 6 and 8 using αvβ3-targeted paramagnetic NP lacking the drug. MRI signal enhancement from the aortic vasa vasorum neovasculature was calculated from transverse black-blood MR images (1.5 T) collected before and 4 hours post NP injection (1 ml/kg body weight). The MRI enhancement observed at each timepoint was normalized with respect to the enhancement measured at week 0.

SMILES: CC(C)c1c(C(=O)Nc2ccccc2)c(-c2ccccc2)c(-c2ccc(F)cc2)n1CC[C@@H](O)C[C@@H](O)CC(=O)O [atorvastatin]
- MRI enhancement in the thoracic aorta, normalized to week 0, time course: slow decrease in enhancement
